Reference: PubChem BioAssay AID1963865 (Molecular Pharmacology Branch, DTP, NCI, 2024)

Test system: KRAS PDC multicell spheroid viability
Assay: Anticancer human tumor 825966-067-R-J1-PDC patient-derived colon carcinoma cell line growth inhibition [KRAS2]
Settings: for IC50: curve of first compound; for viability, T/C: stronger effect = lower value
Procedure, shortened: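 Combination screen of spheroid viability in tumor-cell co-cultures with endothelial (HUVEC) and mesenchymal stem cell stroma. Each agent was tested in half-log dilutions, topping at clinical Cmax or at 10 microM without a known Cmax.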

[1] = second compound 0.1 µM, first compound 0.0316 µM
[2] = second compound 0.1 µM, first compound 0.1 µM
[3] = second compound 0.1 µM, first compound 0.316 µM
[4] = second compound 0.1 µM, first compound 1 µM
[5] = second compound 0.1 µM, first compound 3.16 µM
[6] = second compound 0.316 µM, first compound 0.0316 µM
[7] = second compound 0.316 µM, first compound 0.1 µM
[8] = second compound 0.316 µM, first compound 0.316 µM
[9] = second compound 0.316 µM, first compound 1 µM
[10] = second compound 0.316 µM, first compound 3.16 µM
[11] = second compound 1 µM, first compound 0.0316 µM
[12] = second compound 1 µM, first compound 0.1 µM
[13] = second compound 1 µM, first compound 0.316 µM
[14] = second compound 1 µM, first compound 1 µM
[15] = second compound 1 µM, first compound 3.16 µM
[16] = second compound 3.16 µM, first compound 0.0316 µM
[17] = second compound 3.16 µM, first compound 0.1 µM
[18] = second compound 3.16 µM, first compound 0.316 µM
[19] = second compound 3.16 µM, first compound 1 µM
[20] = second compound 3.16 µM, first compound 3.16 µM
[21] = second compound 10 µM, first compound 0.0316 µM
[22] = second compound 10 µM, first compound 0.1 µM
[23] = second compound 10 µM, first compound 0.316 µM
[24] = second compound 10 µM, first compound 1 µM
[25] = second compound 10 µM, first compound 3.16 µM
[26] = second compound 0.1 µM, first compound 10 µM
[27] = second compound 0.316 µM, first compound 10 µM
[28] = second compound 1 µM, first compound 10 µM
[29] = second compound 3.16 µM, first compound 10 µM
[30] = second compound 10 µM, first compound 10 µM
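Further: spheroids exposed to compounds for 7 days.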
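Wherever viability, T/C is given: 100% = DMSO vehicle control viability.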

CC1COCCN1c1cc(-c2ccnn2C)c2ccnc(-c3ccn[nH]3)c2n1 (stereo not given) + COc1cc2nc(C)nc(NC(C)c3cc(N)cc(C(F)(F)F)c3)c2cc1OC1CCOC1
IC50 (second compound 0.1 µM): > 3.16 µM | IC50 (second compound 0.316 µM): > 3.16 µM | IC50 (second compound 1 µM): 0.152 µM | IC50 (second compound 3.16 µM): 0.0692 µM | IC50 (second compound 10 µM): 0.0123 µM | viability, T/C (second compound 0.1 µM, first compound 0.01 µM): 106% | viability, T/C [1]: 122% | viability, T/C [2]: 67.6% | viability, T/C [3]: 55% | viability, T/C [4]: 55.8% | viability, T/C [5]: 40.1% | viability, T/C (second compound 0.316 µM, first compound 0.01 µM): 112% | viability, T/C [6]: 112% | viability, T/C [7]: 58.3% | viability, T/C [8]: 58.1% | viability, T/C [9]: 52.7% | viability, T/C [10]: 38.8% | viability, T/C (second compound 1 µM, first compound 0.01 µM): 74.6% | viability, T/C [11]: 80.4% | viability, T/C [12]: 61.5% | viability, T/C [13]: 28.3% | viability, T/C [14]: 34.8% | viability, T/C [15]: 27.1% | viability, T/C (second compound 3.16 µM, first compound 0.01 µM): 130% | viability, T/C [16]: 97.9% | viability, T/C [17]: 27.4% | viability, T/C [18]: 27.5% | viability, T/C [19]: 23.9% | viability, T/C [20]: 19.8% | viability, T/C (second compound 10 µM, first compound 0.01 µM): 56.6% | viability, T/C [21]: 21.1% | viability, T/C [22]: 7.19% | viability, T/C [23]: 3.93% | viability, T/C [24]: 2.81% | viability, T/C [25]: 0.97%

CC1OCC2(CCN(c3cnc(Sc4ccnc(N)c4Cl)c(N)n3)CC2)C1N (stereo not given) + COc1cc2nc(C)nc(NC(C)c3cc(N)cc(C(F)(F)F)c3)c2cc1OC1CCOC1
IC50 (second compound 0.1 µM): > 10 µM | IC50 (second compound 0.316 µM): 6.76 µM | IC50 (second compound 1 µM): 7.2 µM | IC50 (second compound 3.16 µM): 5.48 µM | IC50 (second compound 10 µM): 0.557 µM | viability, T/C [1]: 88.2% | viability, T/C [2]: 83.7% | viability, T/C [3]: 74% | viability, T/C [4]: 75.6% | viability, T/C [5]: 100% | viability, T/C [26]: 58% | viability, T/C [6]: 87.4% | viability, T/C [7]: 89% | viability, T/C [8]: 88% | viability, T/C [9]: 95.9% | viability, T/C [10]: 95.5% | viability, T/C [27]: 28.8% | viability, T/C [11]: 89% | viability, T/C [12]: 88% | viability, T/C [13]: 81.7% | viability, T/C [14]: 91.3% | viability, T/C [15]: 89.4% | viability, T/C [28]: 34.7% | viability, T/C [16]: 93.9% | viability, T/C [17]: 104% | viability, T/C [18]: 101% | viability, T/C [19]: 98.5% | viability, T/C [20]: 91.6% | viability, T/C [29]: 4.35% | viability, T/C [21]: 76.5% | viability, T/C [22]: 68.7% | viability, T/C [23]: 63.1% | viability, T/C [24]: 37.4% | viability, T/C [25]: 8.46% | viability, T/C [30]: 0.53%

Cn1nccc1Nc1nccc(-c2cc3c(s2)C(C)(C)N(CCN2CCOCC2)C3=O)n1 + COc1cc2nc(C)nc(NC(C)c3cc(N)cc(C(F)(F)F)c3)c2cc1OC1CCOC1
IC50 (second compound 0.1 µM): > 10 µM | IC50 (second compound 0.316 µM): > 10 µM | IC50 (second compound 1 µM): > 10 µM | IC50 (second compound 3.16 µM): 10 µM | IC50 (second compound 10 µM): 0.0952 µM | viability, T/C [1]: 105% | viability, T/C [2]: 120% | viability, T/C [3]: 146% | viability, T/C [4]: 102% | viability, T/C [5]: 83.1% | viability, T/C [26]: 72.2% | viability, T/C [6]: 110% | viability, T/C [7]: 112% | viability, T/C [8]: 126% | viability, T/C [9]: 81% | viability, T/C [10]: 83.8% | viability, T/C [27]: 67.7% | viability, T/C [11]: 114% | viability, T/C [12]: 117% | viability, T/C [13]: 121% | viability, T/C [14]: 79.3% | viability, T/C [15]: 80.9% | viability, T/C [28]: 65.7% | viability, T/C [16]: 103% | viability, T/C [17]: 130% | viability, T/C [18]: 85.7% | viability, T/C [19]: 49.7% | viability, T/C [20]: 62.5% | viability, T/C [29]: 45.6% | viability, T/C [21]: 70.3% | viability, T/C [22]: 49.1% | viability, T/C [23]: 2.05% | viability, T/C [24]: 0.83% | viability, T/C [25]: 0.32% | viability, T/C [30]: 0.87%
